These results are taken from patent US8410056B2, “Pro-oxidant anti-cancer compounds” (priority 2006, dated 2013).

“Also recorded” adds a separate entry of the source.

Data set [1] concerns MDA-MB-453, MCF-7 and NeuTL breast cancer cells. Briefly: ATP bioluminescence assay. Type of data set: cell-based, human; murine. The settings on record: 6 or 24 h; normoxia or hypoxia. The protocol: (§1) Cell culture and treatment. […] Cells were cultured in DMEM with 10% FCS, 100 U/ml penicillin and 100 μg/ml streptomycin at 37° C. in a humidified atmosphere of 5% CO2. Mitochondrial complex I-deficient (Breen and Scheffler 1979; DeFrancesco et al 1976; Scheffler et al 2004) and complex II-deficient cells (Albayrak et al 2003; Oostveen et al 1995) were grown in DMEM with 10% FCS, […] glucose and non-essential amino acids.
At approximately 70% confluency, cells were treated with up to 50 μM α-TOS (Sigma), up to 100 μM 3-BP (Aldrich) or 30 ng/ml of human recombinant tumor necrosis factor-related apoptosis—inducing ligand (TRAIL) (Weber et al, 2002) under normoxic or hypoxic conditions. For hypoxia, cells overlaid with nitrogen-purged medium were placed in a hypoxic chamber pre-flushed extensively with nitrogen. The hypoxic chamber with cells was then placed in the incubator as required. α-TOS was dissolved in ethanol and used such that the final ethanol concentration in cell culture medium was <0.1% (v/v). Stock solutions of 3-BP were prepared in PBS prior to use.
ATP measurement. MDA-MB-453 and NeuTL cells were seeded at 2×10^5 per ml and MCF-7 cells at 1.2×10^5 per ml into 96-well tissue culture microtitre plates and allowed to recover overnight before use. Cells were incubated for 6 or 24 h with α-TOS or 3-BP under normoxia or hypoxia as described above. ATP levels were then measured using an ATP bioluminescence assay kit HSII (Roche Applied Science) according to the manufacturer's instructions. Briefly, control or treated cells were transferred into black microtitre plates after incubation for 5 min at room temperature with the cell lysis reagent. Luciferase reagent was added and the signal detected immediately using a Fluorostar Optima plate reader (BMG Labtech). Triplicate wells were read for each condition and data evaluated using a standard calibration curve prepared with known concentrations of ATP.

Data set [2] deals with erbB2 highly positive breast carcinomas.
Description: (A) Nude mice were inoculated with MCF-7 cells and, after tumors became established, the animals were treated once every 3 d with 10 μmoles per mouse of α-TOS dissolved in DMSO or with DMSO alone, by intraperitoneal (i.p.) injection. Tumor size was measured using calipers and was correlated to the size of the carcinomas at the onset of the therapy. Four animals were used in each group. The results shown are mean values±S.E. The symbol ‘*’ denotes significant difference (p<0.05). (B) Female FVB/N erbB2 mice with palpable tumors (see General Materials and Methods) received either 10 μmoles α-TOS solubilized in corn oil/4% ethanol (n=11) or the corn oil/4% ethanol alone (control, n=9) by i.p. injection once every 3 d, or 0.2 μmoles 3-BP (n=8) in PBS at the tumor site every day. Tumor size was recorded using calipers. Two independent experiments were conducted. Results are represented as mean values±S.E. The symbol ‘*’ denotes significant difference (p<0.05) in the analysis of variance between the 3-BP and α-TOS curves.
Mouse tumor experiments. Nude mice were inoculated subcutaneously with MCF-7 cells (2×10^6 cells/mouse). After tumors developed (diameter of 3-7 mm), mice were injected intraperitoneally with 10 μmoles α-TOS in DMSO every 3 days. Control mice were injected with an equal volume (100 μl) of DMSO only. Tumor size was estimated by measuring with digital calipers. A colony of transgenic FVB/N2O2 rat c-neu mice carrying the rat HER-2/neu protooncogene driven by the MMTV promoter on the H-2^q FVB/N background (Guy et al, 1992) was established at the Griffith University Animal Facility and maintained under strict inbreeding conditions. The presence of the transgene was routinely confirmed by PCR. Approximately 70% of the female mice developed spontaneous mammary carcinomas with a mean latency time of 10 months. Female transgenic FVB/N2O2 rat c-neu mice bearing progressively growing tumors with a mean diameter of 10±5 mm were randomly assigned to control or treatment groups. Tumor size was measured using digital calipers. […]
For data set [3], the system named is Chinese hamster lung fibroblasts (B1, B10, B9, B9rec cells). The experiment in a line: ROS, SDH activity and apoptosis in complex I- and complex II-deficient cells. It counts as cell-based. How it is done: as §1
Assessment of ROS accumulation. Cellular ROS were detected with the probe dihydroethidinium (DHE) (Molecular Probes) by flow cytometry (Weber et al, 2003), or by trapping with 5,5-dimethyl-1-pyrroline N-oxide (DMPO; Sigma) using electron paramagnetic resonance (EPR) spectro-scopy (Weber et al, 2003). In some studies, the cells were pre-treated for 1 h with 2 μM MitoQ (James et al, 2005) or coincubated with SOD (PEG-SOD, 750 units/ml; Sigma).
Apoptosis assessment. Apoptosis was quantified using the annexin V-FITC method, which detects phosphatidyl serine externalized in the early phases of apoptosis (Boersma et al, 1996). Briefly, cells were plated at 10^5 per well in 24-well plates and, after an overnight recuperation, treated with α-TOS or 3-BP alone or in combination. Floating and attached cells were harvested, washed with PBS, resuspended in 0.2 ml binding buffer (10 mM Hepes, 140 mM NaCl, 5 mM CaCl2, pH 7.4), incubated for 30 min at 4° C. with 2 μl annexin V-FITC (PharMingen), supplemented with 200 μl of 50 μg/ml propidium iodide (PI; Sigma), and analyzed by flow cytometry (FACScalibur, Becton Dickinson) using channel 1 for annexin V-FITC binding and channel 2 for PI staining. Cell death was quantified as the percentage of cells with increased annexin V binding and PI staining.
Complex I- and complex II-deficient cells were also used to confirm the above in vitro results of Example 6.

The test system of data set [4] is NADH dehydrogenase (complex I). Briefly: Complex I (NADH dehydrogenase) activity. It counts as biochemical. Conditions: data not shown. How it is done:
Measurement of mitochondrial complex II and complex I activity. A time course for the reduction of the complex II substrate 2,6-dichlorophenol indophenol (DCIP) by the mitochondrial preparations was followed by measuring the absorbance at 600 nm in 1 cm cuvettes containing a 1 ml reaction volume (ε600=21×10^3 M^−1cm^−1). The reaction components included NADH, 0.5 mM; succinate, 5 mM; KCN, 10 mM; DCIP, 50 μM; PMS, 50 μM. For each assay point, 0.5 mg sample protein was used and α-TOS was added at either 100 or 300 μM as indicated. The change in absorbance of DCIP was measured using a spectrophotometer (UVIKON XL, Secomam) and replicate samples were assayed (n=3). When measuring the complex I (NADH dehydrogenase activity), PMS was omitted. […]
Additional support for the role of α-TOS in inhibiting mitochondrial respiratory complex II activity was sought by isolating subcellular fractions containing mitochondrial preparations from rat liver as well as membranous fractions from P. denitrificans. For these studies, the assay method of SDH/Complex II activity was based on that of King (1967) using phenazine methosulphate (PMS) and the terminal electron acceptor, 2,6-dichloroindophenol (DCIP) as the indicator dye by following the decrease in absorbance at 600 nm as it was reduced by SDH driven under conditions of high succinate. […]

For data set [5], the system named is mesothelioma. Briefly: Clinical study, patient with mesothelioma. Type of data set: in vivo. The protocol: α-TOS was used to treat mesothelioma in a human cancer patient. […] The blood plasma levels were monitored and levels of α-TOS in the plasma attained 50 μM over prolonged periods during continual application. This is more than sufficient to kill the cancer cells based on in vitro analysis.
The patient was originally receiving high dose opiate medications, neuropathic pain medications, home oxygen, and was predicted to have a life expectancy of 6-8 weeks. After treatment with α-TOS, the patient no longer required analgesia or oxygen.
In December 2005, the patient started receiving transdermal delivery of α-TOS, prepared in a base cream and solubilised with dimethyl sulfoxide (DMSO).
In April 2007, therapy with α-TOS was commenced using a modified formulation mixed in a lipodermal cream (see below). […] In addition, a palpable lesion was visible growing out between the ribs and the right anterior chest wall. The patient was in very poor condition with a low ECOG- no CT scan could be performed at the time of commencing the α-TOS treatment because the patient was too moribund.
α-TOS formulation: 500 gms of Lipoderm cream plus 60 gms α-TOS compounded by the hospital pharmacy. About 30 gms of compounded mix was administered every few days, and the upper body was wrapped in plastic film (“saran wrap”) to improve absorption.

Setting [6] is: compared to parental (B1) or B10 cells.

For the compound `Cc1c(C)c2c(c(C)c1OC(=O)CCC(=O)O)CC[C@@](C)(CCC[C@H](C)CCC[C@H](C)CCCC(C)C)O2` [Compound 1, α-tocopheryl succinate], the “cellular ATP levels” value in data set [1] is given as “only significantly reduced cellular ATP levels when applied at the higher concentration of 50 μM”. Besides, in data set [2] (about, over the 2 weeks of treatment, 10 μmoles i.p. every 3 d), the “reduction in the average size of tumors” value was 30-40%. The “tumor growth” value in data set [2] (α-TOS 10 μmoles i.p. every 3 d, 3-BP 0.2 μmoles daily intratumorally) was “statistically more effective (p<0.05 by analysis of covariance) than 3-BP”. Also, the “apoptosis in B1, B10 and B9 cells” value in data set [3] is “initiated apoptosis”. Besides, the “cell killing in CII-reconstituted B9 cells” value in data set [3] (CybL-mutant (B9) cells after reconstitution of CII) was “restored cell sensitivity to α-TOS-induced killing”. In data set [3] (setting [6]), the “ROS accumulation in CII-dysfunctional B9 cells” value is “lower levels of ROS accumulation” and the “apoptosis in CII-dysfunctional B9 cells” value is given as “relatively resistant to apoptosis”. Also, in data set [4], the “NADH dehydrogenase (complex I) activity” value is “no effect”. In data set [5] (human patient, α-TOS therapy), the “clinical effect” value is recorded as “worked very effectively; also recorded: shrunk dramatically”; the side effects entry is “non-toxic with no observable side-effects and was well tolerated; also recorded: no obvious side-effects from the α-TOS therapy apart from a mild itch”. Besides, the “levels of α-TOS in the plasma” value in data set [5] (human, transdermal, continual application, over prolonged periods) was found to be 50 µM. Also, the “clinical response, DMSO base cream” value in data set [5] (transdermal α-TOS in base cream solubilised with DMSO) was “showed clinical response”. Further, the “side effects, DMSO base cream” value in data set [5] (transdermal α-TOS in base cream solubilised with DMSO, about 8 weeks) is reported as “major skin reaction problems secondary to DMSO”.
